Key:
human PGC-1β promoter = human PGC-1β promoter luciferase reporter (phPGC1β (1.0) Luc) in L6 cells; format: cell-based; conditions: final concentration of 1 μmol/L to 10 μmol/L, 24 hours
Procedure: phPGC1β (1.0) Luc plasmid constructed in Example 9, in accordance with the following procedures. L6 cells were cultivated in a tissue culture dish having a diameter of 10 cm to become 80% confluent. The cells were cotransfected with 5 μg of the phPGC1β (1.0) Luc plasmid and 1 μg of plasmid pCH110 (Pharmacia Biotech) using a regent for transfection (FuGENE™ T6, Roche, Cat. No. 1815091). In this connection, the plasmid pCH110 containing a β-galactosidase gene regulated by a β-actin promoter was used to standardize an efficiency of transfection. After 24 hours from the transfection, the cells were transferred to a 96-well tissue culture dish, and further cultured for 6 hours. Since it was reported that the combination of forskolin and dexamethasone induced an expression of endogenous PGC-1 in hepatocytes [J. Biol. Chem., 278: 30843 (2003)], the cells were treated with 10 μmol/L (final concentration) forskolin and 1 μmol/L dexamethasone [solvent=dimethyl sulfoxide (DMSO)] for 24 hours. After the treatment, the cells were lysed with a solution for cell lysis (LCβ; Toyo Ink, Japan), and a luciferase activity therein was measured using a PicaGene luminescence kit (Toyo Ink, Japan, 309-04321). In this connection, the activity was measured 3 times per group, and each experiment was repeated at least twice, to confirm the reproducibility. […]

differentiated L6 cells = assay: activity of glucose uptake (2-deoxy-D-[U-14C] glucose) in differentiated L6 cells; format: cell-based, rat; conditions: compound at 1 μmol/L to 10 μmol/L for 24 hours, FIG. 5
Procedure: A tissue into which the largest amount of glucose can be incorporated in a living body is muscle. In this example and the following examples, a rat myoblast L6 was used to detect an activity of glucose uptake in vitro. L6 cells (ATCC, CRL-1458) were maintained in a Dulbecco's modified Eagle's medium (GIBCO BRL, USA, 11995-065) supplemented with 10% fetal bovine serum (JRH BIOSCIENCES, Cat. No. 12303-500M), and cultured in a humid atmosphere containing 5% CO2 at 37° C. When the L6 cells were confluent, the medium was changed to a Dulbecco's modified Eagle's medium supplemented with 2% horse serum (GIBCO, Cat. No. 16050), and further cultured for 5 days to perform an induction of differentiation.
The cells overexpressing human PGC-1β or human PGC-1α, prepared in accordance with the procedures described in Example 4, were used to measure an activity of glucose uptake. After 48 hours from the infection, the cells were rinsed with 1 mL of a KRP buffer ([…], 4.7 mmol/L KCl, 1.25 mmol/L CaCl2.2H2O, 1.25 mmol/L MgSO4.7H2O, and 5 mmol/L Na2HPO4.12H2O), and further cultured in 500 μL of KRP for 1 hour. […] Each lysate was mixed with 2 mL of a liquid scintillator (AQUASOL 2, PERKINELMER, Cat. No. 6NE9529), and an amount of radiolabeled compound (radioactivity, CPM) incorporated into the cells was measured using a liquid scintillation counter (PACKARD, B2500TR). […]

Nc1cccc(-c2nc3cc(C(=O)c4ccccc4)ccc3[nH]2)c1 [compound A, 2-(3-aminophenyl)-5-benzoyl-(1H)-benzimidazole]
activating activity of the human PGC-1β promoter (reporter luciferase activity) in comparison with absence of the compound (human PGC-1β promoter): ≥ 2 times | activity of glucose uptake in muscle cells (differentiated L6 cells): significantly activated glucose uptake

Reference: patent US20080070249A1, “Novel Activating Agent of Glucose Uptake and a Screening Method Therefor” (ASTELLAS PHARMA INC., priority 2005, published 2008)
